Laboratory results: the RepoRT retention time repository (doi:10.1021/acs.analchem.2c02893)

Test: RP, Thermo Scientific Acclaim RSLC 120 C18, 100 × 2.1 mm, 2.2 µm, 30 °C, 0.2 mL/min, estimated dead time 1.1 min; A: 90% water + 10% methanol + 0.01% formic acid + 5 mM ammonium formate, pH 3.61; B: methanol + 0.01% formic acid + 5 mM ammonium formate, pH 3.61; gradient (min/%B) 0/1 1/1 2/39 13/99.9 15/99.9 15.1/1 20.1/1
Settings: stereoisomer not certain

| SMILES | LC retention time [min] |
| --- | --- |
| CN(CC(O)CO)C(=O)c1c(I)c(NC(=O)C(CO)CO)c(I)c(C(=O)N(C)CC(O)CO)c1I (centres undefined) [Iobitridol] | 2.74 |
| Cc1c(Nc2ncccc2C(=O)O)cccc1C(F)(F)F [Flunixin] | 9.09 |
| N=c1nc(N2CCCCC2)cc(N)n1O [Minoxidil] | 4.88 |
| OC(Cc1ccccc1Cl)(Cn1[nH]cnc1=S)C1(Cl)CC1 (centres undefined) [Prothioconazole] | 11.2 |
| O=C(O)C(c1ccccc1)C1CCCCN1 (centres undefined) [Ritalinic acid] | 4.61 |
| CCCCC(CC)COC(=O)c1ccccc1C(=O)OCC(CC)CCCC (centres undefined) [Phthalate-bis-(2-ethylhexyl). DEHP] | 15 |
| Clc1ccc2c(c1)C(N1CCNCC1)=Nc1ccccc1O2 [Amoxapine] | 7.64 |
| CNC(=O)Oc1cc(C)c(SC)c(C)c1 [Methiocarb (Mercaptodimethur)] | 9.34 |
| O=C(Oc1cccc2cccnc12)c1cn(CCCCCF)c2ccccc12 [PB-22-5F] | 10.7 |
| COc1cc(NS(=O)(=O)c2ccc(N)cc2)ncn1 [Sulfamonomethoxine] | 4.75 |
| CC12CC(O)C3C(CCC4=CC(=O)CCC43C)C1CCC2=O (stereo not drawn) [4-Androsten-11beta-ol-3,17-dione] | 8.23 |
| CN1CCN(C)C1=O [Imidazolidinon- 1-3-Dimethyl-2-] | 3.53 |
| CCN(Cc1ccncc1)C(=O)C(CO)c1ccccc1 (centres undefined) [Tropicamide] | 6.03 |
| O=c1c(-c2ccc(O)cc2)coc2cc(O)ccc12 [Daidzein] | 6.89 |
| O=C1c2ccccc2C(=O)C1C(=O)C(c1ccccc1)c1ccc(Cl)cc1 (centres undefined) [Chlorophacinone] | 9.74 |
| O=C1CC2OCC=C3CN4CCC56c7ccccc7N1C5C2C3CC46 (centres undefined) [Strychnine] | 4.16 |
| O=C(Oc1cccc2cccnc12)c1cn(CC2CCCCC2)c2ccccc12 [BB-22] | 12.4 |
| COc1ccc(N)cc1N [4-Methoxy-1.3-phenylenediamine] | 2.37 |
| Cc1nnc2n1-c1ccc([N+](=O)[O-])cc1C(c1ccccc1)=NC2 [Nitrazolam] | 6.91 |
| CCCc1nc2c(C)cc(-c3nc4ccccc4n3C)cc2n1Cc1ccc(-c2ccccc2C(=O)O)cc1 [Telmisartan] | 10.3 |
| Cc1cc(NS(=O)(=O)c2ccc(N)cc2)no1 [Sulfamethoxazole] | 4.6 |

| SMILES | LC retention time [min] |
| --- | --- |
| Clc1ccc(C(Cn2ccnc2)OCc2ccc(Sc3ccccc3)cc2)c(Cl)c1 (centres undefined) [Fenticonazole] | 13.4 |
| CCC(=O)Nc1ccc(Cl)c(Cl)c1 [Propanil] | 9.38 |
| Cc1ccc(C(C)NC(=O)C(NC(=O)OC(C)C)C(C)C)cc1 (centres undefined) [Iprovalicarb] | 9.82 |
| CC(C)(c1ccc(OCC(O)CCl)cc1)c1ccc(OCC2CO2)cc1 (centres undefined) [Bisphenol<U+00A0>A (3-chloro-2-hydroxypropyl) glycidyl ether] | 11.1 |
| c1ccc2c(c1)Sc1ccccc1N2CC1CN2CCC1CC2 (centres undefined) [Mequitazine] | 8.29 |
| CC1C(c2ccc(Cl)cc2)SC(=O)N1C(=O)NC1CCCCC1 (centres undefined) [Hexythiazox] | 12.6 |
| CN(C(=O)CO)c1c(I)c(C(=O)NCC(O)CO)c(I)c(C(=O)NCC(O)CO)c1I (centres undefined) [Iomeprol] | 2.91 |
| O=c1[nH]c2ccccc2s1 [Benzothiazole -2-OH] | 6.53 |
| C[N+](C)([O-])CCC(c1ccccc1)c1ccccn1 (centres undefined) [Pheniramine N-Oxide] | 5.39 |
| Cn1c(=O)c2c(ncn2CCCNCC(O)c2cc(O)cc(O)c2)n(C)c1=O (centres undefined) [Reproterol] | 3.56 |
| CN1CCCCC(n2cc(C(=O)c3cccc4ccccc34)c3ccccc32)C1 (centres undefined) [AM-1220-Azepane] | 8.61 |
| COP(=S)(OC)Oc1ccc(S(C)=O)c(C)c1 (centres undefined) [Fenthion-sulfoxide] | 7.28 |
| CCCC(C(=O)OCCN(CC)CC)(c1ccccc1)c1ccccc1 [Proadifen] | 9.41 |
| Nc1nc(=S)c2[nH]cnc2[nH]1 [Thioguanine] | 2.53 |
| CC(O)CCCn1cc(C(=O)c2cccc3ccccc23)c2ccccc21 (centres undefined) [JWH-018-M-N-4-OH-Pentyl] | 10.1 |
| O=C1CN=C(c2ccccc2)c2cc([N+](=O)[O-])ccc2N1 [Nitrazepam] | 7.79 |
| Nc1cn[nH]c(=O)c1Cl [Desphenyl chloridazon] | 2.32 |
| CCC(=O)OC1(C(=O)SCF)C(C)CC2C3CC(F)C4=CC(=O)C=CC4(C)C3(F)C(O)CC21C (centres undefined) [Fluticasone propionate] | 10.7 |
| CC(=O)C1CCC2C3CCC4=CC(=O)CCC4(C)C3CCC12C (centres undefined) [Progesterone] | 11.2 |
| CC(=O)OC1(C(C)=O)CCC2C3CC(C)C4=CC(=O)CCC4(C)C3CCC21C (centres undefined) [Medroxyprogesteroneacetate] | 11 |
| CC1(C)CC1C(=O)NC(=CCCCCSCC(N)C(=O)O)C(=O)O (centres undefined) [Cilastatin] | 4.88 |

| SMILES | LC retention time [min] |
| --- | --- |
| CN(C)CCOC(=O)C(c1ccccc1)C1(O)CCCC1 (centres undefined) [Cyclopentolate] | 6.16 |
| COc1cc2[nH]c(C)c(CCN3CCN(c4ccccc4)CC3)c2cc1OC [Oxypertine] | 5.76 |
| CC12CCC(=O)C=C1CCC1C2C(O)CC2(C)C(C(=O)CO)CCC12 (centres undefined) [Corticosterone] | 8.74 |
| CCN(CC)CC#CCOC(=O)C(O)(c1ccccc1)C1CCCCC1 (centres undefined) [Oxybutynin] | 8.92 |
| CCOC1OC(C(=O)O)C(O)C(O)C1O (centres undefined) [EtG (Na)] | 1.52 |
| CC(C)C(=O)Nc1ccc([N+](=O)[O-])c(C(F)(F)F)c1 [Flutamide] | 11.2 |
| C[N+]1(CCC(O)(c2ccccc2)c2cccs2)CCOCC1 (centres undefined) [Tiemonium] | 5.06 |
| C=CCC1=C(C)C(OC(=O)C2C(C=C(C)C(=O)OC)C2(C)C)CC1=O (centres undefined) [Allethrin II] | 12.3 |
| CN(C)C(=O)Oc1cc(OC(=O)N(C)C)cc(C(O)CNC(C)(C)C)c1 (centres undefined) [Bambuterol] | 5.16 |
| O=c1cn[nH][nH]1 [1 2 3-triazole-5-OH (1.2.3)] | 5.99 |
| CN1CC2c3ccccc3Oc3ccc(Cl)cc3C2C1 (centres undefined) [Asenapine] | 7.39 |
| O=C(Nc1ccccc1)Nc1cnns1 [Thidiazuron] | 7.17 |
| CNC(=O)CSP(=O)(OC)OC [Omethoate] | 3.35 |
| CNC(=O)Oc1cc(C)c(C)c(C)c1.CNC(=O)Oc1cc(C)cc(C)c1C [Trimethacarb (2.3.5-)] | 8.4 |
| CC12CC1(C)C(=O)N(c1cc(Cl)cc(Cl)c1)C2=O (centres undefined) [Procymidone] | 10.2 |
| COc1ccc(Oc2ccc(NC(=O)N(C)C)cc2)cc1 [Difenoxuron] | 8.43 |
| CCNc1nc(NC(C)C)nc(SC)n1 [Ametryn] | 9.16 |
| CN1CCN(C2=Nc3ccccc3Sc3ccc(Cl)cc32)CC1 [Clothiapine] | 8.96 |
| CCN(CC)c1nc(C)cc(OP(=S)(OC)OC)n1 [Pirimiphos-methyl] | 11.3 |
| CC1COC(=O)c2cc3c(cc21)C(C)(C)C(C)C3(C)C (centres undefined) [Galaxolidone] | 12 |
| CN1CCCC1CCOC(C)(c1ccccc1)c1ccc(Cl)cc1 (centres undefined) [Clemastine] | 9.31 |

| SMILES | LC retention time [min] |
| --- | --- |
| C=CCN(CC=C)CCc1c[nH]c2ccc(OC)cc12 [MeO-DALT (5-)] | 4.89 |
| CCOC(=O)C(CCc1ccccc1)NC(C)C(=O)N1Cc2ccccc2CC1C(=O)O (centres undefined) [Quinapril] | 9.03 |
| CC(C)(C)N1CCC(c2ccccc2)(c2ccccc2)CC1 [Budipine] | 6.72 |
| CCN(CC)CCCC(C)Nc1ccnc2cc(Cl)ccc12 (centres undefined) [Chloroquine] | 4.16 |
| CC12C=CC(=O)C=C1CCC1C2C(=O)CC2(C)C1CCC2(O)C(=O)CO (centres undefined) [Prednisone] | 7.85 |
| CS(=O)(=O)c1ccc(C(=O)C2C(=O)CCCC2=O)c(Cl)c1 [Sulcotrione] | 5 |
| CN(C)CCCC1(c2ccc(F)cc2)OC(=O)c2cc(C#N)ccc21 (centres undefined) [Citalopram 3-oxo] | 6.6 |
| CCN(CC)C(=O)C1C=C2c3cccc4c3C(O)(CC2N(C)C1)C(=O)N4 (centres undefined) [2-Oxo-3-hydroxy-LSD] | 4.23 |
| O=c1[nH]c2ccccc2n1CCN1CCN(c2cccc(C(F)(F)F)c2)CC1 [Flibanserin] | 9.99 |
| CC(Cc1ccc2c(c1)OCO2)N(C)C (centres undefined) [MDDMA] | 4.08 |
| CN(CCO)CC(O)Cn1cnc2c1c(=O)n(C)c(=O)n2C (centres undefined) [Xanthinol] | 2.99 |
| CCC(=O)OC1(C(=O)CCl)C(C)CC2C3CCC4=CC(=O)C=CC4(C)C3(F)C(O)CC21C (centres undefined) [Clobetasol propionate] | 10.6 |
| c1ccc2c(c1)CCCC2C1=NCCN1 (centres undefined) [Tetryzoline] | 4.47 |
| C=CCN1CCC23c4c5ccc(O)c4OC2C(=O)CCC3(O)C1C5 (centres undefined) [Naloxone] | 3.44 |
| Fc1ccc(Oc2ccnc3cc(Cl)cc(Cl)c23)cc1 [Quinoxyphen] | 12.8 |
| OCc1ncc2n1-c1ccc(Cl)cc1C(c1ccccc1F)=NC2 [Midazolam -1-Hydroxy] | 8.44 |
| CCN(CC)C(=O)SCc1ccccc1Cl [Orbencarb] | 11.3 |
| CN1CCCCC1Cn1cc(C(=O)C23CC4CC(CC(C4)C2)C3)c2ccccc21 (centres undefined) [AM-1248] | 9.94 |
| CC1(C)CC(N)CC(C)(CN)C1 (centres undefined) [Isophorone diamine] | 1.67 |
| CC(C)(C(=O)O)c1ccc(C(O)CCCN2CCC(C(O)(c3ccccc3)c3ccccc3)CC2)cc1 (centres undefined) [Fexofenadine] | 7.68 |
| CC12CCC(=O)C=C1C1CC1C1C2CCC2(C)C1C1CC1C21CCC(=O)O1 (centres undefined) [Drospirenone] | 9.56 |
